Assay results published in US5827073A, “Photoreactive peptide derivatives” (Ludwig Institute for Cancer Research, priority 1995, dated 1998).
Entries after “also recorded” stand apart in the source; their conditions may differ. Where no end group is shown, it is not given here. [ ]: non-standard residue; d: D form. IASA = not defined here; Dap = NC[C@H](N)C(=O)O

Experiments:
Assay type in all cases: binding, human
[1] = system: HLA-A29; experiment: Inhibition of HLA-A29 photoaffinity labelling on 807-02 cells by competitor peptides; conditions: for inhibition of HLA-A29 photoaffinity labelling (HLA-A29 competitor activity / binding): 20-fold molar excess of competitor, FIG. 6B
Protocol: (§1) All photoaffinity labelling procedures were performed essentially as described by Luescher et al., J. Immunol., 148:1003-011 (1992); Luescher et al., Nature, 351:72-74 (1991); Romero et al., J. Exp. Med., 177:1247-1256 (1993); Luescher et al., J. Biol. Chem., 269:5574-5592 (1994); and Romero et al., J. Immunol. Methods, 171:73-84 (1994). Briefly, HLA-A1 transfected C1R cells, cultured in hygromycin containing medium, or other cell types were resuspended in DMEM medium supplemented with 0.5% fetal calf serum, 10 mM HEPES and 0.25 μg/ml human β2-microglobulin, or as specified, at 6 ×10^6 cells/ml. One ml aliquotes were incubated in 6-well plates with 20 ×10^6 cpm of peptide derivative at 26° C. for 4 hours or as specified.
(§2) After UV irradiation with a 15 W mercury fluorescence lamp with an emission maximum at 365 nm and a band width of 80 nm for 4 minutes at a lamp-sample distance of 2 cm, the cells were washed 4 times with DMEM containing 2% calf serum and 1 time with PBS. The washed cells were lysed and boiled in reducing sample buffer supplemented with MgCl2 and subjected to SDS-PAGE. Alternatively the UV irradiated samples were lysed with NP-40 detergent (0.7%) on ice in the presence of HEPES (50 mM), leupeptin (10 μg/ml), PMSF (0.1 mM), and iodoacetamide (10 MM). Immunoprecipitation of HLA molecules with immobilized W6/32 mAb (Brodsky et al., J. Immunol., 128:129-135 (1982) and SDS-PAGE analysis of the immunoprecipitate were performed as described by Luescher et al., Electrophoresis, 8:508 (1987). The gels were evaluated by autoradiography and in some experiments by densitometry as described by Luescher et al., J. Immunol., 148:1003-1011 (1992). Each labelling experiment was performed at least twice.
After UV irradiation, the cells were lysed and the immunoprecipitated HLA molecules were analyzed by SDS-PAGE and the resulting autoradiograms were evaluated by densitometry. All experiments were performed at least in triplicate. Hundred percent labelling refers to the labelling observed in the absence of a competitor peptide (FIG. 6A).

[2] = system: HLA-A1; experiment: HLA-A1 photoaffinity labelling of HLA-A1 transfected C1R cells with radioiodinated peptide derivative; conditions: β2-microglobulin, 26° C., UV irradiation, SDS-PAGE
Protocol: as §1, §2
To perform competition assays, ^51 Cr labelled C1R HLA-A1 transfected cells were incubated in the presence of a suboptimal concentration of the MAGE-3 peptide 168-176 with cloned HLA-A1-restricted MAGE-3-specific CTL 20/38. […] Alternatively, the radioiodinated peptide derivatives were incubated with HLA-A1 transfected C1R cells and following UV irradiation, the lysates of the washed cells were analyzed by SDS-PAGE (10%, reducing conditions).
Following incubation of these cells with the radioiodinated peptide derivatives and UV irradiation, cell lysates were analyzed by SDS-PAGE (FIG. 4B).

[3] = system: HLA class I molecules; experiment: Photoaffinity labelling of a panel of cell lines expressing different HLA class I molecules; conditions: COS-7 transfectant
[4] = system: HLA class I molecules; experiment: as above; conditions: for photoaffinity labelling of 45 kDa HLA heavy chain on LG2-EBV cells: lane 11
Protocol: as §1, §2
The first 9 were HLA homozygous EBV transformed cells lines that have been described at the 10th International Histocompatibility Workshop (DuPont, Immunobiology of HLA, New York, Springer-Verlag, Vol. 1 (1987)). Workshop numbers are indicated as "ws#", and their HLA-C expression has been determined by PCR (Levine et al., Tissue Antigens, 44:174 (1994)). The heterozygous EBV transformed cell lines were derived from HLA-typed individuals. In the case of HLA-C, the serological typing was incomplete, as indicated by question marks. The remaining cell line was COS-7 cell transfected with HLA-Cw*1601. These cells were subjected to the same labelling procedure as described for FIG. 4B.

[5] = system: HLA-A1; experiment: Inhibition of HLA-A1 photoaffinity labelling on C1R/A1 cells by competitor peptides; conditions: for binding of MAGE-3 peptide variants to HLA-A1: single alanine substitutions, method not stated
[6] = system: HLA-A1; experiment: Dissociation of HLA-A1 peptide derivative complexes on C1R/A1 cells; conditions: physiological conditions (37° C., no exogenous β2-microglobulin), after 6 hours
Protocol: FIG. 3 is comprised of FIG. 3A, FIG. 3B and FIG. 3C. FIG. 3A represents SDS-PAGE analysis of EADPTGDap(IASA)SY incubated with C1R/A1 cells or WT51 cells in the presence of β2-microglobulin. FIG. 3B represents SDS-PAGE where incubation was performed at 37° C. or 26° C. in the absence of presence of β2-microglobulin, and the autoradiograms were evaluated by densitometry.
This considerable increase is mainly accounted for by an accordingly less efficient peptide binding under physiological conditions (i.e., 37° C. and no exogenous β2-microglobulin) . Another difference between the human and murine system is the difference in the stability of MHC class 1-peptide complexes. On C1R/A1 cells, the dissociation of HLA-A1 peptide derivative complexes under physiological conditions was remarkably slow, and even after 6 hours of incubation less than 20% dissociation took place (FIG. 3C). Similarly slow dissociations have been reported for other HLA class I molecules (DiBrino et al., J. Immunol., 152:620-631 (1994); Tsomides et al., Proc. Natl. Acad. Sci. USA, 88:11276 (1991)). In contrast, in the murine system, i.e., the Kd, Db of Ld system, under these conditions rapid dissociations with halftimes in the range of one hour have been reported (Luescher et al., Nature, 351:72-74 (1991); Luescher et al., J. Biol. Chem., 269:5574-5582 (1994); Romero et al., 1994, supra).

[7] = labelling with Dap(IASA)-ADPTGHSY on C1R HLA-A1 transfectants, 100-fold molar excess of competitor, densitometry

MAGE-3 variant substitution in position 2 with phenylalanine: MAGE-3 peptide 168-176 with position 2 replaced by phenylalanine (EFDPIGHLY; UniProt P43357 168-176, looked up, variant V169F)
inhibition of HLA-A29 photoaffinity labelling (HLA-A29 competitor activity / binding) [1]: increased

Dap(IASA)-ADPTGHSY ([Dap](IASA)ADPTGHSY; reading uncertain)
HLA-A1 photoaffinity labelling (45 kDa HLA-A1 heavy chain) [2]: efficiently bound to and photoaffinity labelled HLA-A1
HLA-A1 photoaffinity labelling (45 kDa HLA-A1 heavy chain) ([2]; listed as derivative containing Dap(IASA) in position 1): efficiently labelled
HLA labelling on COS-7 cells transfected with HLA-A1 [3]: displayed HLA labelling
HLA labelling on COS-7 cells transfected with HLA-A29 [3]: displayed HLA labelling
HLA labelling on 806-04 cells ([4]; 806-04 (HLA-A29+)): similarly efficient HLA labelling
photoaffinity labelling of 45 kDa HLA heavy chain on 807-02 cells ([4]; 807-02 (HLA-A29+), lane 15): significant photoaffinity labelling; also recorded: similarly efficient HLA labelling
photoaffinity labelling of 45 kDa HLA heavy chain on BM21 cells ([4]; EBV transformed line BM21 (HLA-A1), lane 1): significant photoaffinity labelling
photoaffinity labelling of 45 kDa HLA heavy chain on MOU cells ([4]; EBV transformed line MOU (HLA-A*2902, HLA-B*4403), lane 4): significant photoaffinity labelling
photoaffinity labelling of 45 kDa HLA heavy chain on LG2-EBV cells [4]: significant photoaffinity labelling
photoaffinity labelling of 45 kDa HLA heavy chain on LG2-EBV cells ([4]; listed as SEQ ID NO: 8): weak labelling
photoaffinity labelling of 45 kDa material on the other lines tested ([4]; lanes 2, 3, 5-10, 12-14): not detectable

MAGE-3 variant alanine substitution of Ile-172: MAGE-3 peptide 168-176 with Ile-172 replaced by alanine (EVDPAGHLY; UniProt P43357 168-176, looked up, variant I172A)
inhibition of HLA-A29 photoaffinity labelling (HLA-A29 competitor activity / binding) [1]: markedly reduced the binding

tyrosinase peptide 368-376: HLA-A2-restricted tyrosinase peptide 368-376 (IYMNGTMSQ; UniProt P14679 368-376, looked up, fragment) [reference compound]
inhibition of HLA-A29 photoaffinity labelling ([1]; labelling with Dap(IASA)-ADPTGHSY on 807-02 cells, 100-fold molar excess of competitor, densitometry): no detectable inhibition
inhibition of HLA-A1 photoaffinity labelling [5, 7]: No significant inhibition

MAGE-3 variant Tyr-176 replaced with phenylalanine: MAGE-3 peptide 168-176 with C-terminal tyrosine replaced by phenylalanine (EVDPIGHLF; UniProt P43357 168-176, looked up, variant Y176F)
inhibition of HLA-A29 photoaffinity labelling (HLA-A29 competitor activity / binding) [1]: largely preserved the HLA-A29 competitor activity; also recorded: considerably diminishes binding

MAGE-3 variant alanine substitution of Val-169: MAGE-3 peptide 168-176 with Val-169 (position 2) replaced by alanine (EADPIGHLY; UniProt P43357 168-176, looked up, variant V169A)
inhibition of HLA-A29 photoaffinity labelling (HLA-A29 competitor activity / binding) [1]: to a lesser degree
inhibition of HLA-A29 photoaffinity labelling (HLA-A29 competitor activity / binding) ([1]; listed as MAGE-3 variant substitution in position 2 with alanine): impaired

Glu Ala Asp Pro Thr Gly Dap(IASA) Ser Tyr (EADPTG[Dap](IASA)SY; reading uncertain; also: radioiodinated, printed as Glu Ala Asp Pro Thr Gly Dap(IASA) Ser Tyr) [SEQ ID NO: 1]
HLA-A1 photoaffinity labelling (45 kDa HLA-A1 heavy chain) [2]: corresponds to the HLA-A1 heavy chain
HLA-A1 photoaffinity labelling (45 kDa HLA-A1 heavy chain) ([2]; listed as derivative containing Dap(IASA) in position 7): efficiently labelled
dissociation of HLA-A1 peptide derivative complexes [6]: less than 20%
HLA labelling on eight other EBV cell lines ([4]; eight other EBV cell lines expressing different HLA-A, B and C molecules): Equally negative
HLA labelling on TEM cells ([4]; homozygous EBV transformed line TEM, HLA-A26, B-38): No detectable HLA labelling
HLA labelling on WT51 cells ([4]; homozygous EBV transformed line WT51, HLA-A23, B65): No detectable HLA labelling

MAGE-3: HLA-A1 restricted MAGE-3 peptide 168-176
inhibition of HLA-A29 photoaffinity labelling (HLA-A29 competitor activity / binding) [1]: approximately 80%
inhibition of HLA-A1 photoaffinity labelling [5, 7]: about 98%
inhibition of HLA-A1 photoaffinity labelling ([5]; labelling with SEQ ID NO: 1 on C1R/A1 cells, 300 fold molar excess of competitor): completely inhibited

MAGE-3 variant alanine substitution of Asp-170: MAGE-3 peptide 168-176 with Asp-170 replaced by alanine (EVAPIGHLY; UniProt P43357 168-176, looked up, variant D170A)
binding of MAGE-3 peptide variants to HLA-A1 [5]: substantially impaired its binding

MAGE-3 variant substitution in position 2 with isoleucine: MAGE-3 peptide 168-176 with position 2 replaced by isoleucine (EIDPIGHLY; UniProt P43357 168-176, looked up, variant V169I)
inhibition of HLA-A29 photoaffinity labelling (HLA-A29 competitor activity / binding) [1]: increased

MAGE-3 variant containing Ala in position 9: MAGE-3 peptide 168-176 with Tyr-176 replaced by alanine (EVDPIGHLA; UniProt P43357 168-176, looked up, variant Y176A)
inhibition of HLA-A29 photoaffinity labelling (HLA-A29 competitor activity / binding) [1]: 13%
binding of MAGE-3 peptide variants to HLA-A1 [5]: substantially impaired its binding
